Data set [1] concerns MHC-mismatched heart grafts. As to conditions: quinacrine on days −2, −1, +5, +14, +16; for survival of heart allografts: A/J donors to C57BL/6.
Protocol: Heterotopic cardiac transplants were performed using microsurgical techniques. Briefly, donor hearts were harvested and placed in chilled Ringer's solution while the recipient mice were prepared. […] Upon completion of the anastomoses and organ reperfusion, the heart grafts resumed spontaneous contraction. The strength and quality of cardiac graft impulses were monitored each day by palpation of the abdomen. Rejection of cardiac grafts was considered complete by cessation of impulse and was confirmed visually for each graft by laparotomy.
Data set [2] concerns histone H2A.X. Kind of data set: Immunofluorescent detection of phosphorylated histone H2A.X. The class given is cell-based, human. The conditions noted are these: HT1080 cells, 10 μM. The source says: All washings were done with blocking solution.
Data set [3] concerns ACHN cells. Nature of the data set: Experimental chemotherapy of tumor xenografts. The class given is in vivo, nude mice. The conditions noted are these: 5-fluorouracil 35 mg/kg. How it is done:
NIH Swiss athymic nude, male mice, 5-6 weeks old, were purchased from Harlan. 5×10^6 tumor cells were inoculated into the flanks of mice in 100 μL of PBS. When tumors reached 5 mm in diameter, intraperitoneal injections of drugs were started in 100 μL of a solution of 50% DMSO in PBS (except for quinacrine, which was dissolved in PBS). As vehicle, 50% DMSO solution in PBS was used. Tumor size was measured in three dimensions every other day.

Data set [4] has as its system ovalbumin-specific IgG. Kind of data set: Ovalbumin immunization, ovalbumin-specific IgG titers by ELISA. The class given is in vivo, BALB/c mice. As to conditions: ovalbumin 100 ug i.p. days 0 and 7; quinacrine 80 mg/kg days 1, 2, 8 and 9; serum day 14.
Data set [5] has as its system hapten-specific CD8 T cells producing IFN-γ. Kind of data set: ELISPOT assay of hapten-specific CD8 T cells producing IFN-γ. The class given is in vivo, BALB/c mice. As to conditions: day +5. How it is done:
ELISPOT assays to enumerate hapten-specific T cells producing IFN-γ were performed as previously described. Briefly, ELISPOT plates (Millipore, Bedford, Mass.) were coated with 100 ml of […] anti-IFN-γ mAb R26A2 and incubated overnight at […]. The plates were blocked with 1% BSA in PBS for 90 min at 37° C. and washed four times with PBS. LNC suspensions from DNFB-sensitized mice were prepared on day +5 after sensitization and CD8 + T cells were enriched by negative selection using Dynabeads (Dynal A. S., Oslo, Norway). The efficiency of CD4+ T cell depletion was >95% as assessed by flow cytometry. Syngeneic spleen cells from naive mice were treated with […] mitomycin C, hapten-labeled by incubation with DNBS ([…]), and used as stimulator cells. Responder LNC were resuspended in serum-free HL-1 medium (BioWhittaker, Walkersville, Md.) and cultured at 3×10^5 cells/well with 5×10^5 stimulator cells/well 24 h at 37° C. in 5% CO2. In all experiments responder CD8+ T cells cultured with unlabeled splenocytes and LNC from naive mice cultured with DNBS-labeled stimulator cells were used as negative controls. […] The resulting spots were counted on an ImmunoSpot Series 1 Analyzer (Cellular Technologies Ltd., Cleveland, Ohio) that was designed to detect spots with predetermined criteria for size, shape and colorimetric density. […]

The source of these data is patent publication US20100112012A1, “MODULATION OF IMMUNE RESPONSES” (CLEVELAND CLINIC FOUNDATION, priority 2005, published 2010).

Entries after “also recorded” stand apart in the source; their conditions may differ. Read-outs that look alike come from different tables or passages of the source.

Turning to `CCN(CC)CCCC(C)Nc1c2ccc(Cl)cc2nc2ccc(OC)cc12` (stereo not drawn) [QC, quinacrine], the “survival of heart allografts” value in data set [1] (listed as Quinacrine) was “extended the survival of all grafts”; in data set [1] (listed as quinacrine) it was “significant prolongation of allograft survival”. The “rejection of heart allografts” value in data set [1] (groups of 5) is recorded as “absence of rejection in one of the allografts”. In addition, in data set [2], the “phosphorylation of histone H2A.X” value was “Neither 9AA nor QC induced phosphorylation of histone H2A.X”. In data set [3] (ACHN cells subcutaneous in nude mice, QC 50 mg/kg intraperitoneal), the “growth of tumor xenografts” value is “inhibited the growth of tumor xenografts; also recorded: same antitumor effect as 5-fluorouracil”. In addition, in data set [3] (ACHN xenograft nude mice, QC 50 mg/kg), the weight loss entry is “without the significant weight loss”. The “increase of antigen-specific titers of IgG” value in data set [4] is 4 fold. Further, the “increase in priming of antigen-specific effector T cells” value in data set [5] (quinacrine on days 0 and +1 (during sensitization)) is reported as about 3 fold. For the same molecule, in data set [5] (quinacrine on days −2 and −1 (just prior to sensitization)), the “priming of antigen-specific T cells (IFN-γ producing CD8 T cells)” value is “inhibits the priming of antigen-specific T cells; also recorded: decreased the priming of antigen-specific T cells”.
